# Reference: patent US20240308960A1 (Sumitomo Pharma Co., Ltd., priority 2021, published 2024)
# Target: T1, Human orexin receptor type 2 (Homo sapiens, UniProt O43614)
# T1 sequence (O43614 1-444): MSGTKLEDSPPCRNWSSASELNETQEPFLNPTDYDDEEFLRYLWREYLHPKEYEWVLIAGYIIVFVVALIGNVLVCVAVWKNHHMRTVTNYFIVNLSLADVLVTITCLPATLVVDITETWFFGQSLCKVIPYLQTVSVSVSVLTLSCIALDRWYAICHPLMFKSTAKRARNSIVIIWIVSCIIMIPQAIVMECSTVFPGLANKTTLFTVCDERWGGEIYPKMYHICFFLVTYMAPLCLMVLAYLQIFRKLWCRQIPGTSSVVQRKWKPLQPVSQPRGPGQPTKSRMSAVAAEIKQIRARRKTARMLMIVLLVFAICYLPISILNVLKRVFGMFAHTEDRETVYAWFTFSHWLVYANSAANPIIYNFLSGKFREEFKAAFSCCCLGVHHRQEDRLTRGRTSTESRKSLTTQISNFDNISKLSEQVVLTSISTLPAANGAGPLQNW
# Assay: Test Example 1: agonist activity for orexin receptor type 2 (aequorin luminescence, intracellular calcium mobilization)
# Settings: compound 10 μm; CHO cells transiently expressing human orexin receptor type 2 and apoaequorin; relative percentage of luminescence for the luminescence (100%) of Orexin A (100 μM)
# Experimental: Human orexin receptor type 2 and apoaequorin were transiently expressed in CHO cells, and the agonist activity was evaluated based on intracellular calcium mobilization with ligand stimulation. The CHO cells transiently-expressed human orexin receptor type 2 and apoaequorin were seeded on a 384-well plate by 2,000 cells/well, and then incubated for 16-22 hours. After the plate was returned to room temperature, Coelenterazine hcp (final concentration: 1 μM) was added to the plate, and the plate was allowed to stand at room temperature for 2 hours. And then, Orexin A or each test compound was added to the plate, and the luminescence of the cells was measured with FDSS7000 (Hamamatsu Photonics K. K.), wherein Orexin A and each test compound were dissolved in DMSO (final concentration: 0.1%), and diluted with a buffer (Hanks, 20 mM HEPES, 0.1% BSA). The agonist activity of each test compound for orexin receptor type 2 was calculated as relative percentage of luminescence for the luminescence (100%) of Orexin A (100 μM).
row,Agonist Activity (%),SMILES
1,54,"CCN1CCCN(c2ccccc2NC(=O)N2CCC(c3ccc(C)cc3)CC2)CC1 [Example 153, N-[2-(4-ethyl-1,4-diazepan-1-yl)phenyl]-4-(4-methylphenyl)piperidine-1-carboxamide]"
2,75,"Cc1ccc(N2CCCN(C(=O)Nc3c(Cl)cccc3N3CCN(C(C)C)CC3)CC2)cc1 [Example 99, N-{2-chloro-6-[4-(propan-2-yl)piperazin-1-yl]phenyl}-4-(4-methylphenyl)-1,4-diazepane-1-carboxamide]"
3,184,"CC(C)[C@@H]1CO[C@H](c2cccc(Cl)c2NC(=O)N2CCC(C)(c3noc(C4CC4)n3)CC2)CN1 (racemic) [Example 168, Rac-N-{2-chloro-6-[(2R,5R)-5-(propan-2-yl)morpholin-2-yl]phenyl}-4-(5-cyclopropyl-1,2,4-oxadiazol-3-yl)-4-methylpiperidine-1-carboxamide]"
4,100,"Cc1noc(C2(C)CCN(C(=O)Nc3ccccc3N3CCN(C(C)C)CC3)CC2)n1 [Example 162, 4-Methyl-4-(3-methyl-1,2,4-oxadiazol-5-yl)-N-{2-[4-(propan-2-yl)piperazin-1-yl]phenyl}piperidine-1-carboxamide]"
5,179,"CC(C)N1CCN(c2cccc(Cl)c2NC(=O)N2CCC(F)(c3noc(C4CC4)n3)CC2)CC1 [Example 94, N-{2-chloro-6-[4-(propan-2-yl)piperazin-1-yl]phenyl}-4-(5-cyclopropyl-1,2,4-oxadiazol-3-yl)-4-fluoropiperidine-1-carboxamide]"

# Further lines, the compound ahead of its results:
row,SMILES,Agonist Activity (%)
1,"CC(C)N1CCN(c2cccc(Cl)c2NC(=O)N2CCC(C)(c3cc(C4CC4)on3)CC2)CC1 [Example 61, N-{2-chloro-6-[4-(propan-2-yl)piperazin-1-yl]phenyl}-4-(5-cyclopropyl-1,2-oxazol-3-yl)-4-methylpiperidine-1-carboxamide]",156
2,"Cc1nc(C2(C)CCN(C(=O)Nc3c(Cl)cccc3N3CCN(C(C)C)CC3)CC2)no1 [Example 81, N-{2-chloro-6-[4-(propan-2-yl)piperazin-1-yl]phenyl}-4-methyl-4-(5-methyl-1,2,4-oxadiazol-3-yl)piperidine-1-carboxamide]",145
3,"CC(C)N1CCN(c2cccc(F)c2NC(=O)N2C3CCC2CC(c2nc(C4CC4)no2)C3)CC1 (stereo not shown) [Example 32, 3-(3-cyclopropyl-1,2,4-oxadiazol-5-yl)-N-{2-fluoro-6-[4-(propan-2-yl)piperazin-1-yl]phenyl}-8-azabicyclo[3.2.1]octane-8-carboxamide]",30
4,"CC(C)N1CCN(c2cccc(F)c2NC(=O)N2CCC(c3ccccn3)CC2)CC1 [Example 36, N-{2-fluoro-6-[4-(propan-2-yl)piperazin-1-yl]phenyl}-4-(pyridin-2-yl)piperidine-1-carboxamide]",123
5,"CC(C)N1C2CCC1CN(c1cccc(F)c1NC(=O)N1CCC(C)(c3noc(C4CC4)n3)CC1)C2 [Example 155, 4-(5-cyclopropyl-1,2,4-oxadiazol-3-yl)-N-{2-fluoro-6-[8-(propan-2-yl)-3,8-diazabicyclo[3.2.1]octan-3-yl]phenyl}-4-methylpiperidine-1-carboxamide]",55
